Consider 55 compounds from patent US20240262804A1, “NITROGEN-CONTAINING HETEROCYCLIC KETONES, PREPARATION METHODS AND MEDICINAL USES THEREOF” (Hansoh Bio LLC, priority 2021, published 2024).

Molecules are shown by their SMILES.

bovine cardiac myosin, sequence (Q9BE39 whole entry): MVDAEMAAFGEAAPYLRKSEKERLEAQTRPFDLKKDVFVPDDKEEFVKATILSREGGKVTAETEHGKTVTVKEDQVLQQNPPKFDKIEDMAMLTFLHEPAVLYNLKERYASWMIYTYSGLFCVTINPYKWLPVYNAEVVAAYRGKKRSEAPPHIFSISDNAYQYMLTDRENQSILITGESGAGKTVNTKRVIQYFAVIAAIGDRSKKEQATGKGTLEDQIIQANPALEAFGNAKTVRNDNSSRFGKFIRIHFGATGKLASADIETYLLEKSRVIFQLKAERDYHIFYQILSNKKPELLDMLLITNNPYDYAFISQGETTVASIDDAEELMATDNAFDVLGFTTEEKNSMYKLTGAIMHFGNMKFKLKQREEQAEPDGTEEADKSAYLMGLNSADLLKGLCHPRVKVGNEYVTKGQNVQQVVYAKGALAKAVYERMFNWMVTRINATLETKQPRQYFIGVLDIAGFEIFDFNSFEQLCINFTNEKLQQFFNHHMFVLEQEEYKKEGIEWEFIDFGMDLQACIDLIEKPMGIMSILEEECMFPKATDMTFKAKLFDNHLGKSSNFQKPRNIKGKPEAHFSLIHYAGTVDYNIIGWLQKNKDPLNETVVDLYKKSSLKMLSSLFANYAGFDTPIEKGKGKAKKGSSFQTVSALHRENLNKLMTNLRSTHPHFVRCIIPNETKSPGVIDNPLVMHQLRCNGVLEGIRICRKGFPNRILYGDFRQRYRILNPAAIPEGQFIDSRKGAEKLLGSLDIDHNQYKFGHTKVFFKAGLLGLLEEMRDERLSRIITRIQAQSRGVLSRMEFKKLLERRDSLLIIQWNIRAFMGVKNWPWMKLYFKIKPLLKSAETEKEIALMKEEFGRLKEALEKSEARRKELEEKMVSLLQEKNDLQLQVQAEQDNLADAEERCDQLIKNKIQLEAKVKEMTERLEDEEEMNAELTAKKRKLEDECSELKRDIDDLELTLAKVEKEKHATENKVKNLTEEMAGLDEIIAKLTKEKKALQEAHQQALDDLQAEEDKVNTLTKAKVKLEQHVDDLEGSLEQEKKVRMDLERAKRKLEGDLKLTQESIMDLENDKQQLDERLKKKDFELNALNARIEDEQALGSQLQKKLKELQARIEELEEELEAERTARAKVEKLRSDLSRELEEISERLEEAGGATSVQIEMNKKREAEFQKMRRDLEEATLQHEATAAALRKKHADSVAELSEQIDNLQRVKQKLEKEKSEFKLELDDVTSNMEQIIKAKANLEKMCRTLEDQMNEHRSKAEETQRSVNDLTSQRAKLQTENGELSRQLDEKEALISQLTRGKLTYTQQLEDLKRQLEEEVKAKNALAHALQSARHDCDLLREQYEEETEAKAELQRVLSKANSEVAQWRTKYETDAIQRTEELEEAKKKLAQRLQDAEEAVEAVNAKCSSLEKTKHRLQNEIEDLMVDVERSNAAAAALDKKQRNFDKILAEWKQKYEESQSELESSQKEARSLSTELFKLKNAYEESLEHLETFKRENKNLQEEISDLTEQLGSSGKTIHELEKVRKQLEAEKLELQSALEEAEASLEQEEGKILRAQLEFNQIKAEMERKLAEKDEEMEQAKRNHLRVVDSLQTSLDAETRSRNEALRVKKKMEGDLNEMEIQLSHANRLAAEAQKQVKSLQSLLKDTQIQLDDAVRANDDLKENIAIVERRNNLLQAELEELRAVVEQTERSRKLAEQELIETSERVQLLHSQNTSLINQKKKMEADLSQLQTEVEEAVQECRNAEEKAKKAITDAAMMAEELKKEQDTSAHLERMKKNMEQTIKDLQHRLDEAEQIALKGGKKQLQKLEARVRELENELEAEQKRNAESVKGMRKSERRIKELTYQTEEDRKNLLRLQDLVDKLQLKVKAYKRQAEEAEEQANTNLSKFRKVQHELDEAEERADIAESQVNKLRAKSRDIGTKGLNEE
bovine cardiac myosin, sequence (P85100 whole entry partner): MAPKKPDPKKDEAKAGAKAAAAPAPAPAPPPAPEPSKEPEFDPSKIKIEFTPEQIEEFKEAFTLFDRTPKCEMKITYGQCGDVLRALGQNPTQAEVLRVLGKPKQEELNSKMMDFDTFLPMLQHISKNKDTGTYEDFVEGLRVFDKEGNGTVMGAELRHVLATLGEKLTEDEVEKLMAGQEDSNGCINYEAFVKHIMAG
bovine cardiac myosin, sequence (Q3SZE5 whole entry partner): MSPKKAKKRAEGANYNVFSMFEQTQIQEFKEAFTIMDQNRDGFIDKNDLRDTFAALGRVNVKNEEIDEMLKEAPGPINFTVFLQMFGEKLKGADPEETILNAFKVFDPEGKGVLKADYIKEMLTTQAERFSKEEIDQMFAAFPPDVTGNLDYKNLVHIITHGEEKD

The assay concerns the target bovine cardiac myosin (Bos taurus (Bovine), UniProt Q9BE39). The assay is described as follows: Myosin inhibitory potency: PK/LDH-coupled ATPase assay on bovine skinned cardiac myofibrils. Type of assay: biochemical. The following applies: pCa=6.25, 50 μM ATP, 25° C., read-out: myosin inhibition activity IC50. The protocol:
The average rates of ATPase inhibition, and the IC50 values are determined by Victor Nivo multimode plate reader (PerkinElmer, USA).
As to the assays background, a biochemical assay couples the ATPase activity of bovine cardiac myosin to an enzymatic coupling system consisting of pyruvate kinase and lactate dehydrogenase (PK/LDH) and monitoring the absorbance decrease of NADH (at 340 nm) as a function of time to measure the inhibitory ability of small molecule agents. In the assay, PK converts ADP (Adenosine diphosphate) to ATP (adenosine triphosphate) by converting PEP (phosphoenolpyruvate) to pyruvate. Pyruvate is then converted to lactate by LDH by converting NADH (nicotinamide adenine dinucleotide) to NAD (oxidized nicotinamide adenine dinucleotide).
In our experiments, bovine skinned cardiac myofibrils were isolated from the frozen bovine left ventricle as myosin's source in the ATPase assay. The calcium concentration that achieves a 50% (pCa50 or pCa=6.25) activation of the myofibril system was chosen as the final condition for assessing the activation activity according to the literature (DOI: 10.1074/jbc.M117.776815). Myofibrils ATPase activity was measured in a buffered solution containing 12 mM PIPES (piperazine-N, N′-bis(2-ethane sulfonic acid) and 2 mM magnesium chloride at pH 6.8 (PM12 buffer). Final assay conditions were 1 mg/mL of bovine cardiac myofibrils, 1:20 of stock PK/LDH (Sigma-Aldrich, Cat No. P0294-5X5ML), 50 μM ATP, 1 mM DTT (dithiothreitol), 0.75 mM NADH, 1.5 mM PEP at pCa50 (pCa=6.25). Compounds were dissolved in DMSO (dimethyl sulfoxide). Serial dilution of compounds was created such that the final desired concentration of compound would be achieved in a volume of 150 μL with a fixed DMSO concentration of 2% (v/v). 75 μL of a solution containing bovine cardiac myofibrils, PK/LDH, and calcium were added to a 96 well plate for a 7 point dose-response. In some circumstances, 10 point-response was used to repeat the ATPase assays on compounds of interest. Compounds were added to the myofibrils solution and incubated for 5 minutes. The enzymatic reaction was started with the addition of 75 μL of a solution containing ATP, PEP, NADH, compounds, and calcium. The ATPase activity was measured by reading absorbance at 340 nm in a PerkinElmer Victor Nivo plate reader at 25° C. in kinetic mode for 15 minutes using clear bottom plates. The slopes of the absorbance changes as a function of time for the first 10 minutes were normalized to slopes on the control wells containing all reagents, including DMSO, but without compounds. This normalized rate was then plotted as a function of small molecule concentration in GraphPad prism 9. The data were fitted to a four-parameter fit, and IC50 was calculated using Graphpad Prism 9.
In general, IC50 refers to the concentration needed to halve the response being measured. For the compound `C[C@H](Nc1nc(=O)n(C2CCOCC2)c(=O)[nH]1)C1CCCCC1` [Example 2], the IC50 came to 2.45 µM. `CC(C)n1c(=O)nc(N[C@@H](C)c2ccccc2)[nH]c1=O` [Example 3]: the IC50 came out at 7.05 µM. With `C[C@H](Nc1nc(=O)n(C2CCOCC2)c(=O)[nH]1)c1cccc(Cl)c1F` [Example 11] the figure was 1.37 µM.

Take `C[C@H](Nc1nc(=O)n(C2CCOCC2)c(=O)[nH]1)c1c(F)cccc1F` [Example 12]: the IC50 is 2.14 µM. Take `C[C@H](Nc1nc(=O)n(C2CCOCC2)c(=O)[nH]1)c1c(F)cccc1Cl` [Example 13]: the IC50 is 1.3 µM. With `C[C@H](Nc1nc(=O)n([C@@H](C)C(F)(F)F)c(=O)[nH]1)C1CCCCC1` [Example 14], the IC50 came to 1.17 µM. For `C[C@H](Nc1nc(=O)n([C@H](C)C(F)(F)F)c(=O)[nH]1)C1CCCCC1` [Example 15] the value was 2.16 µM; for `C[C@H](Nc1nc(=O)n(CC(F)(F)F)c(=O)[nH]1)C1CCCCC1` [Example 16], 0.69 µM; for `C[C@H](Nc1nc(=O)n(C(C2CC2)C(F)(F)F)c(=O)[nH]1)C1CCCCC1` (stereo partly shown) [Example 18], 0.48 µM. Regarding `C[C@H](Nc1nc(=O)n(C2CCNC(=O)C2)c(=O)[nH]1)C1CCCCC1` (stereo partly shown) [Example 22], the IC50 amounted to 13.2 µM. Regarding `C[C@H](Nc1nc(=O)n(C2CCN(C)C(=O)C2)c(=O)[nH]1)C1CCCCC1` (stereo partly shown) [Example 23], the IC50 was 8.05 µM. For `C[C@H](Nc1nc(=O)n(-c2cccnc2)c(=O)[nH]1)C1CCCCC1` [Example 24] the value was 9.14 µM.

Turning to `CC(C)N1CCC(n2c(=O)nc(N[C@@H](C)C3CCCCC3)[nH]c2=O)CC1` [Example 31], the IC50 was found to be 5.91 µM.

With `C[C@H](Nc1nc(=O)n(C2CCN(C3CC3)CC2)c(=O)[nH]1)C1CCCCC1` [Example 32], the IC50 worked out at 3.04 µM. As for `COCCN1CCC(n2c(=O)nc(N[C@@H](C)C3CCCCC3)[nH]c2=O)CC1` [Example 33], the IC50 amounted to 3.86 µM.

Regarding `Cc1cccc([C@H](C)Nc2nc(=O)n(C3CCCOC3)c(=O)[nH]2)c1` (stereo partly shown) [Example 35], the IC50 came to 2.59 µM. Consider `Cc1cccc([C@H](C)Nc2nc(=O)n(C3CCN(C(C)C)CC3)c(=O)[nH]2)c1` [Example 37], for which the IC50 worked out at 1.29 µM.

As for `COCCN1CCC(n2c(=O)nc(N[C@@H](C)c3cccc(C)c3)[nH]c2=O)CC1` [Example 38], the IC50 amounted to 1.45 µM. Take `Cc1cccc([C@H](C)Nc2nc(=O)n(C3CCN(CC(F)(F)F)CC3)c(=O)[nH]2)c1` [Example 39]: the IC50 stood at 6.7 µM. For `Cc1cccc([C@H](C)Nc2nc(=O)n([C@@H](C)C(F)(F)F)c(=O)[nH]2)c1` [Example 40], the IC50 was 2.21 µM. For `Cc1cccc([C@H](C)Nc2nc(=O)n([C@H](C)C(F)(F)F)c(=O)[nH]2)c1` [Example 41] the value was 2.19 µM. With `Cc1cccc([C@H](C)Nc2nc(=O)n(CC(F)(F)F)c(=O)[nH]2)c1` [Example 42], the IC50 is 9.1 µM. `CC(C)Oc1ccc([C@H](C)Nc2nc(=O)n(C3CCOCC3)c(=O)[nH]2)cc1` [Example 43]: the IC50 stood at 1.08 µM. For the compound `C[C@H](Nc1nc(=O)n(C2CCOCC2)c(=O)[nH]1)c1ccccc1` [Example 46], the IC50 was 3.9 µM. For the compound `COc1ccc([C@H](C)Nc2nc(=O)n(C3CCOCC3)c(=O)[nH]2)cc1` [Example 48], the IC50 came out at 1.13 µM.

On to `CC(Nc1nc(=O)n(C(C)C)c(=O)[nH]1)c1ccccc1O` (stereo not shown) [Example 51], for which the IC50 turned out to be 11.1 µM.

For `CC(n1c(=O)nc(N[C@@H](C)C2CCCCC2)[nH]c1=O)C(F)(F)F` (stereo partly shown) [Example 52], the IC50 was determined as 6.14 µM. Regarding `C[C@H](Nc1nc(=O)n(C2(C(F)(F)F)CC2)c(=O)[nH]1)C1CCCCC1` [Example 54], the IC50 came out at 4.52 µM. Turning to `C[C@H](Nc1nc(=O)n(C2CCC(F)(F)CC2)c(=O)[nH]1)C1CCCCC1` [Example 55], the IC50 worked out at 4.63 µM. With `Cc1cc(C)cc([C@H](C)Nc2nc(=O)n(C3CCOCC3)c(=O)[nH]2)c1` [Example 56], the IC50 stood at 1.49 µM. For `C[C@H](Nc1nc(=O)n(-c2ccccn2)c(=O)[nH]1)C1CCCCC1` [Example 57], the IC50 worked out at 7.4 µM.

As for `C[C@H](Nc1nc(=O)n(C2CCN(C)CC2)c(=O)[nH]1)C1CCCCC1` [Example 59], the IC50 stood at 2.59 µM.

`C[C@H](Nc1nc(=O)n(C2CCCCC2)c(=O)[nH]1)C1CCCCC1` [Example 60]: the IC50 was determined as 7.41 µM. For the compound `CC(C)n1c(=O)nc(NCCC2CCCCC2)[nH]c1=O` [Example 65], the concentration for half-maximal inhibition (IC50) was 4.23 µM.

In the case of `CC(Nc1nc(=O)n(C(C)C)c(=O)[nH]1)C1CCC(F)(F)CC1` (stereo not shown) [Example 66], the IC50 came out at 10.2 µM. Take `CC(C)n1c(=O)nc(NC(C2CCCCC2)C2CC2)[nH]c1=O` (stereo not shown) [Example 69]: the IC50 was determined as 8.43 µM. With `CC[C@H](Nc1nc(=O)n(C(C)C)c(=O)[nH]1)C1CCCCC1` [Example 70] the figure was 5.28 µM; with `O=c1nc(NC(C2CCCCC2)C(F)(F)F)[nH]c(=O)n1C1CCOCC1` (stereo not shown) [Example 75], 6.12 µM. `C[C@H](Nc1nc(=O)n(C2CCCC2)c(=O)[nH]1)C1CCCCC1` [Example 78]: the IC50 was found to be 4.89 µM.

Take `CO[C@H]1CC[C@@H](n2c(=O)nc(N[C@@H](C)C3CCCCC3)[nH]c2=O)CC1` [Example 84]: the IC50 was determined as 5.77 µM. For `C[C@H](Nc1nc(=O)n([C@H]2CC[C@@H](F)CC2)c(=O)[nH]1)C1CCCCC1` [Example 86], the IC50 was 1.83 µM.

`C[C@H](Nc1nc(=O)n([C@H]2CC[C@H](F)CC2)c(=O)[nH]1)C1CCCCC1` [Example 87]: the IC50 is 0.45 µM. For `C[C@H](Nc1nc(=O)n(C2(C)CCC2)c(=O)[nH]1)C1CCCCC1` [Example 89] the value was 8.64 µM.

For the compound `C[C@H](Nc1nc(=O)n(C2(C)CCCC2)c(=O)[nH]1)C1CCCCC1` [Example 90], the IC50 worked out at 8.72 µM.

Turning to `Cc1cccc([C@H](C)Nc2nc(=O)n(C3CCn4nccc4C3)c(=O)[nH]2)c1` (stereo partly shown) [Example 92], the IC50 was found to be 7.47 µM. For `Cc1cccc([C@H](C)Nc2nc(=O)n(C3CCCCC3)c(=O)[nH]2)c1` [Example 93] the value was 8.03 µM; for `Cc1cccc([C@H](C)Nc2nc(=O)n(C3CCCC3)c(=O)[nH]2)c1` [Example 94], 1.75 µM; for `Cc1cccc([C@H](C)Nc2nc(=O)n(C3CCOC3)c(=O)[nH]2)c1` (stereo partly shown) [Example 95], 7.32 µM. For `Cc1cccc([C@H](C)Nc2nc(=O)n([C@H]3CC[C@@H](NC(=O)OC(C)(C)C)CC3)c(=O)[nH]2)c1` [Example 96], the IC50 stood at 4.58 µM. Consider `Cc1cccc([C@H](C)Nc2nc(=O)n([C@H]3CC[C@H](NC(=O)OC(C)(C)C)CC3)c(=O)[nH]2)c1` [Example 97], for which the IC50 was determined as 1.29 µM. Turning to `Cc1cccc([C@H](C)Nc2nc(=O)n(C3CCOCC3(C)C)c(=O)[nH]2)c1` (stereo partly shown) [Example 99], the IC50 came out at 9.35 µM. With `Cc1cccc([C@H](C)Nc2nc(=O)n(C3CCOC(C)C3)c(=O)[nH]2)c1` (stereo partly shown) [Example 100], the IC50 came to 5.41 µM. As for `CC(Nc1nc(=O)n(C2CCOCC2)c(=O)[nH]1)c1ccccc1O` (stereo not shown) [Example 101], the IC50 was determined as 10.6 µM. On to `CC(Nc1nc(=O)n(C2CCOCC2)c(=O)[nH]1)c1ccc(O)cc1` (stereo not shown) [Example 103], for which the IC50 was 14.1 µM. Turning to `CC(Nc1nc(=O)n(C2CCOCC2)c(=O)[nH]1)C1CCCCCC1` (stereo not shown) [Example 109], the IC50 came to 4.58 µM.
